Data: PubChem BioAssay (NCI)
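48-hour exposure; five concentrations; linearly interpolated endpoints. Here, GI50 denotes the concentration required for 50% inhibition of growth. TGI: concentration producing complete growth inhibition.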

Legend:
Experiment in all cases: growth of human tumour cells (NCI), 48 h
786-0 renal = system: 786-0 renal
A498 renal = system: A498 renal
A549 NSCLC = system: A549 NSCLC
ACHN renal = system: ACHN renal
BT-549 breast = system: BT-549 breast
CAKI-1 renal = system: CAKI-1 renal
CCRF-CEM leukemia = system: CCRF-CEM leukemia
COLO 205 colon = system: COLO 205 colon
DU-145 prostate = system: DU-145 prostate
EKVX NSCLC = system: EKVX NSCLC
HCC-2998 colon = system: HCC-2998 colon
HCT-116 colon = system: HCT-116 colon
HCT-15 colon = system: HCT-15 colon
HL-60(TB) leukemia = system: HL-60(TB) leukemia
HOP-62 NSCLC = system: HOP-62 NSCLC
HOP-92 NSCLC = system: HOP-92 NSCLC
HS 578T breast = system: HS 578T breast
HT29 colon = system: HT29 colon
IGROV1 ovarian = system: IGROV1 ovarian
K-562 leukemia = system: K-562 leukemia
KM12 colon = system: KM12 colon
LOX IMVI melanoma = system: LOX IMVI melanoma
M14 melanoma = system: M14 melanoma
MALME-3M melanoma = system: MALME-3M melanoma
MCF7 breast = system: MCF7 breast
MDA-MB-231 breast = system: MDA-MB-231 breast
MDA-MB-435 = system: MDA-MB-435
MOLT-4 leukemia = system: MOLT-4 leukemia
NCI-H226 lung = system: NCI-H226 lung
NCI-H23 lung = system: NCI-H23 lung
NCI-H460 lung = system: NCI-H460 lung
NCI-H522 lung = system: NCI-H522 lung
NCI/ADR-RES ovarian = system: NCI/ADR-RES ovarian
OVCAR-3 ovarian = system: OVCAR-3 ovarian
OVCAR-4 ovarian = system: OVCAR-4 ovarian
OVCAR-5 ovarian = system: OVCAR-5 ovarian
OVCAR-8 ovarian = system: OVCAR-8 ovarian
PC-3 prostate = system: PC-3 prostate
RPMI-8226 leukemia = system: RPMI-8226 leukemia
SF-268 CNS = system: SF-268 CNS
SF-295 CNS = system: SF-295 CNS
SF-539 CNS = system: SF-539 CNS
SK-MEL-2 melanoma = system: SK-MEL-2 melanoma
SK-MEL-28 melanoma = system: SK-MEL-28 melanoma
SK-MEL-5 melanoma = system: SK-MEL-5 melanoma
SK-OV-3 ovarian = system: SK-OV-3 ovarian
SN12C renal = system: SN12C renal
SNB-19 CNS = system: SNB-19 CNS
SNB-75 CNS = system: SNB-75 CNS
SR leukemia = system: SR leukemia
SW-620 colon = system: SW-620 colon
T-47D breast = system: T-47D breast
TK-10 renal = system: TK-10 renal
U251 CNS = system: U251 CNS
UACC-257 melanoma = system: UACC-257 melanoma
UACC-62 melanoma = system: UACC-62 melanoma
UO-31 renal = system: UO-31 renal
RXF 393 renal = system: RXF 393 renal

## C[C@]12CCC(=O)C[C@@H]1CC[C@@H]1[C@@H]2CC[C@]2(C)[C@@H](OC(=O)N(CCCl)N=O)CC[C@@H]12
786-0 renal
  GI50: 0.118 µM
  TGI: 3.66 µM
A498 renal
  GI50: 1.82 µM
  TGI: 4.98 µM
A549 NSCLC
  GI50: 0.353 µM
  TGI: 11.6 µM
ACHN renal
  GI50: 0.321 µM
  TGI: 11.7 µM
BT-549 breast
  GI50: 4.87 µM
  TGI: 21.7 µM
CAKI-1 renal
  GI50: 0.591 µM
  TGI: 12 µM
CCRF-CEM leukemia
  GI50: 0.207 µM
COLO 205 colon
  GI50: 1.7 µM
  TGI: 4.72 µM
DU-145 prostate
  GI50: 0.405 µM
  TGI: 3.95 µM
EKVX NSCLC
  GI50: 4.88 µM
  TGI: > 41.1 µM
HCC-2998 colon
  GI50: 0.933 µM
  TGI: 7.95 µM
HCT-116 colon
  GI50: 2.89 µM
  TGI: > 35.1 µM
HCT-15 colon
  GI50: 2.26 µM
  TGI: 14 µM
HL-60(TB) leukemia
  GI50: 0.259 µM
  TGI: > 33 µM
HOP-62 NSCLC
  GI50: 1.75 µM
  TGI: 14.1 µM
HOP-92 NSCLC
  GI50: 0.179 µM
  TGI: 11.1 µM
HS 578T breast
  GI50: 2.13 µM
  TGI: 16.9 µM
HT29 colon
  GI50: 2.75 µM
  TGI: > 39 µM
IGROV1 ovarian
  GI50: 1.47 µM
  TGI: 12.8 µM
K-562 leukemia
  GI50: 2.69 µM
  TGI: > 43.4 µM
KM12 colon
  GI50: 1.49 µM
  TGI: 6.41 µM
LOX IMVI melanoma
  GI50: 0.625 µM
  TGI: 15.4 µM
M14 melanoma
  GI50: 0.752 µM
  TGI: 22.3 µM
MALME-3M melanoma
  GI50: 4.3 µM
  TGI: 24.1 µM
MCF7 breast
  GI50: 4.71 µM
  TGI: > 45.6 µM
MDA-MB-231 breast
  GI50: 9.48 µM
  TGI: 24.4 µM
MDA-MB-435
  GI50: 1.07 µM
  TGI: 18.1 µM
MOLT-4 leukemia
  GI50: 0.145 µM
  TGI: > 41.6 µM
NCI-H226 lung
  GI50: 11.9 µM
  TGI: 30.4 µM
NCI-H23 lung
  GI50: 1.32 µM
  TGI: 25.4 µM
NCI-H460 lung
  GI50: 0.06 µM
  TGI: 2.99 µM
NCI-H522 lung
  GI50: 2.48 µM
  TGI: 20.4 µM
NCI/ADR-RES ovarian
  GI50: 1.22 µM
  TGI: 28 µM
OVCAR-3 ovarian
  GI50: 3.53 µM
  TGI: 15.9 µM
OVCAR-4 ovarian
  GI50: 11.5 µM
  TGI: 29.7 µM
OVCAR-5 ovarian
  GI50: 6.31 µM
  TGI: 22.4 µM
OVCAR-8 ovarian
  GI50: 1.36 µM
  TGI: 24 µM
PC-3 prostate
  GI50: 1.1 µM
RPMI-8226 leukemia
  GI50: 2.02 µM
  TGI: 6.89 µM
SF-268 CNS
  GI50: 0.0983 µM
  TGI: 8.85 µM
SF-295 CNS
  GI50: 0.133 µM
  TGI: > 45.4 µM
SF-539 CNS
  GI50: 0.069 µM
  TGI: 4.67 µM
SK-MEL-2 melanoma
  GI50: 3.47 µM
  TGI: 16.8 µM
SK-MEL-28 melanoma
  GI50: 6.43 µM
  TGI: 23 µM
SK-MEL-5 melanoma
  GI50: 1.05 µM
  TGI: 6.16 µM
SK-OV-3 ovarian
  GI50: 1.41 µM
  TGI: 13.6 µM
SN12C renal
  GI50: 0.734 µM
  TGI: 17.9 µM
SNB-19 CNS
  GI50: 0.411 µM
  TGI: 17.8 µM
SNB-75 CNS
  GI50: 0.507 µM
  TGI: 13.3 µM
SR leukemia
  TGI: > 37.7 µM
SW-620 colon
  GI50: 1.11 µM
  TGI: 19 µM
T-47D breast
  GI50: 2.91 µM
  TGI: 30 µM
TK-10 renal
  GI50: 3.85 µM
  TGI: 27.7 µM
U251 CNS
  GI50: 0.394 µM
  TGI: 14 µM
UACC-257 melanoma
  GI50: 1.14 µM
  TGI: 8.58 µM
UACC-62 melanoma
  GI50: 0.377 µM
  TGI: 11.7 µM
UO-31 renal
  GI50: 1.11 µM
  TGI: 10.5 µM

## COc1ccc(-c2cc(-c3ccc(Nc4ccnc5cc(Cl)ccc45)cc3)[nH]c(=O)c2C#N)cc1
786-0 renal
  TGI: > 100 µM
A498 renal
  TGI: > 100 µM
A549 NSCLC
  TGI: > 100 µM
ACHN renal
  TGI: > 100 µM
BT-549 breast
  TGI: > 100 µM
CAKI-1 renal
  TGI: > 100 µM
COLO 205 colon
  TGI: > 100 µM
DU-145 prostate
  TGI: > 100 µM
EKVX NSCLC
  TGI: > 100 µM
HCC-2998 colon
  TGI: > 100 µM
HCT-116 colon
  TGI: > 100 µM
HCT-15 colon
  TGI: > 100 µM
HL-60(TB) leukemia
  TGI: > 100 µM
HOP-62 NSCLC
  TGI: > 100 µM
HOP-92 NSCLC
  TGI: > 100 µM
HS 578T breast
  TGI: > 100 µM
IGROV1 ovarian
  TGI: > 100 µM
K-562 leukemia
  TGI: > 100 µM
KM12 colon
  TGI: > 100 µM
LOX IMVI melanoma
  TGI: > 100 µM
M14 melanoma
  TGI: > 100 µM
MALME-3M melanoma
  TGI: > 100 µM
MCF7 breast
  TGI: > 100 µM
MDA-MB-231 breast
  TGI: > 100 µM
MDA-MB-435
  TGI: > 100 µM
MOLT-4 leukemia
  TGI: > 100 µM
NCI-H226 lung
  TGI: > 100 µM
NCI-H23 lung
  TGI: > 100 µM
NCI-H460 lung
  TGI: > 100 µM
NCI-H522 lung
  TGI: > 100 µM
NCI/ADR-RES ovarian
  TGI: > 100 µM
OVCAR-3 ovarian
  TGI: > 100 µM
OVCAR-4 ovarian
  TGI: > 100 µM
OVCAR-5 ovarian
  TGI: > 100 µM
OVCAR-8 ovarian
  TGI: > 100 µM
PC-3 prostate
  TGI: > 100 µM
RPMI-8226 leukemia
  TGI: > 100 µM
RXF 393 renal
  TGI: > 100 µM
SF-268 CNS
  TGI: > 100 µM
SF-295 CNS
  TGI: > 100 µM
SF-539 CNS
  TGI: > 100 µM
SK-MEL-2 melanoma
  TGI: > 100 µM
SK-MEL-28 melanoma
  TGI: > 100 µM
SK-OV-3 ovarian
  TGI: > 100 µM
SNB-19 CNS
  TGI: > 100 µM
SNB-75 CNS
  TGI: > 100 µM
SR leukemia
  TGI: > 100 µM
SW-620 colon
  TGI: > 100 µM
T-47D breast
  TGI: > 100 µM
TK-10 renal
  TGI: > 100 µM
U251 CNS
  TGI: > 100 µM
UACC-62 melanoma
  TGI: > 100 µM
UO-31 renal
  TGI: > 100 µM
